Data from PubChem BioAssay (NCI).
Values after ≈ are worked out from the molar mass of the structure shown. Values joined by “and” are separate entries in the source; they are usually repeats but may differ in a detail not shown here. Equal values may be shown once.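 How tested: cells in 96-well plates exposed to compound for 48 hours at five concentrations. The concentration for 50% growth inhibition is given as GI50. TGI marks complete inhibition of growth.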

Experiments:
Assay in all cases: inhibition of tumour cell growth, NCI panel, 48 h
SK-OV-3 ovarian = system: SK-OV-3 ovarian
U251 CNS = system: U251 CNS
DLD-1 colon = system: DLD-1 colon
UACC-257 melanoma = system: UACC-257 melanoma
NCI-H460 lung = system: NCI-H460 lung
SF-295 CNS = system: SF-295 CNS
SNB-78 CNS = system: SNB-78 CNS
UACC-62 melanoma = system: UACC-62 melanoma
OVCAR-5 ovarian = system: OVCAR-5 ovarian
NCI-H522 lung = system: NCI-H522 lung

Structure (SMILES): CCOC(=O)NC(=O)c1cn(CCSCCOC(=O)NCCCCCCNC(=O)OCCSCCn2cc(C(=O)NC(=O)OCC)c(=O)[nH]c2=O)c(=O)[nH]c1=O
- TGI (SK-OV-3 ovarian): > 100 µM
- TGI (U251 CNS): > 100 µM
- TGI (DLD-1 colon): > 100 µM
- TGI (UACC-257 melanoma): > 100 µM
- TGI (NCI-H460 lung): > 100 µM
- TGI (SF-295 CNS): > 100 µM
- TGI (SNB-78 CNS): > 100 µM
- TGI (UACC-62 melanoma): > 100 µM

Structure (SMILES): COc1cc2c(cc1OC)C(Cc1c3ccccc3cc3ccccc13)N(C)CC2 (configuration not stated)
- TGI (OVCAR-5 ovarian): 40.2 µM
- TGI (NCI-H522 lung): 60 µM
- TGI (SK-OV-3 ovarian): 84.5 µM
- TGI (U251 CNS): 35.6 µM
- TGI (DLD-1 colon): > 100 µM
- TGI (UACC-257 melanoma): 35.5 µM
- TGI (NCI-H460 lung): 61.3 µM
- TGI (SF-295 CNS): 33.8 µM
- TGI (SNB-78 CNS): > 73.1 µM
- TGI (UACC-62 melanoma): 40.8 µM

Structure (SMILES): NC(N)=Nc1nc2ccccc2[nH]1
- GI50 (OVCAR-5 ovarian): 27.8 µg/mL (≈ 159 µM)
- TGI (OVCAR-5 ovarian): > 150 µg/mL
- GI50 (NCI-H522 lung): 5.66 µg/mL (≈ 32.3 µM)
- TGI (NCI-H522 lung): 46.5 µg/mL
- GI50 (SK-OV-3 ovarian): 150 µg/mL (≈ 856 µM)
- TGI (SK-OV-3 ovarian): > 150 µg/mL
- GI50 (U251 CNS): 55.3 µg/mL
- TGI (U251 CNS): > 150 µg/mL
- GI50 (DLD-1 colon): 54.4 µg/mL
- TGI (DLD-1 colon): > 150 µg/mL
- GI50 (UACC-257 melanoma): 72.4 µg/mL
- TGI (UACC-257 melanoma): > 150 µg/mL
- GI50 (NCI-H460 lung): 36.5 µg/mL (≈ 209 µM)
- TGI (NCI-H460 lung): > 150 µg/mL
- GI50 (SF-295 CNS): 34.4 µg/mL
- TGI (SF-295 CNS): 111 µg/mL
- GI50 (SNB-78 CNS): 150 µg/mL
- TGI (SNB-78 CNS): > 150 µg/mL
- GI50 (UACC-62 melanoma): 36.2 µg/mL
- TGI (UACC-62 melanoma): > 150 µg/mL

Structure (SMILES): Cc1cc(N=Nc2ccc(N=Nc3c(O)c(S(=O)(=O)O)cc4cc(S(=O)(=O)O)ccc34)cc2C)ccc1N=Nc1ccc2cc(S(=O)(=O)O)cc(S(=O)(=O)O)c2c1
- TGI (OVCAR-5 ovarian): > 100 µM
- TGI (NCI-H522 lung): > 100 µM
- TGI (SK-OV-3 ovarian): > 100 µM
- TGI (U251 CNS): > 100 µM
- TGI (DLD-1 colon): > 100 µM
- TGI (UACC-257 melanoma): > 100 µM
- TGI (NCI-H460 lung): > 100 µM
- TGI (SF-295 CNS): > 100 µM
- TGI (SNB-78 CNS): > 100 µM
- TGI (UACC-62 melanoma): > 100 µM

Structure (SMILES): CC1=C2C(O)C(C(C)C(=O)NC(C)C)CCC2(C)C=CC1=O (configuration not stated)
- TGI (OVCAR-5 ovarian): > 100 µM
- TGI (NCI-H522 lung): > 100 µM
- TGI (SK-OV-3 ovarian): > 100 µM
- TGI (U251 CNS): > 100 µM
- TGI (DLD-1 colon): > 100 µM
- TGI (UACC-257 melanoma): > 100 µM
- TGI (NCI-H460 lung): > 100 µM
- TGI (SF-295 CNS): > 100 µM
- TGI (SNB-78 CNS): > 100 µM
- TGI (UACC-62 melanoma): > 100 µM

Structure (SMILES): CCNCCCCNCC
- TGI (OVCAR-5 ovarian): > 3750 µM
- TGI (NCI-H522 lung): > 3750 µM
- TGI (SK-OV-3 ovarian): > 3750 µM
- TGI (U251 CNS): > 3750 µM
- TGI (DLD-1 colon): > 3750 µM
- TGI (UACC-257 melanoma): > 3750 µM
- TGI (NCI-H460 lung): > 1190 µM
- TGI (SF-295 CNS): > 3750 µM
- TGI (SNB-78 CNS): > 3750 µM
- TGI (UACC-62 melanoma): > 3750 µM

Structure (SMILES): COC(=O)NN1C(=O)C(=P(c2ccccc2)(c2ccccc2)c2ccccc2)C(C(=O)OC)=C1C
- TGI (NCI-H522 lung): > 100 µM
- TGI (SK-OV-3 ovarian): > 100 µM
- TGI (U251 CNS): > 100 µM
- TGI (NCI-H460 lung): > 100 µM
- TGI (SF-295 CNS): > 100 µM
- TGI (SNB-78 CNS): > 100 µM
- TGI (UACC-62 melanoma): > 100 µM

Structure (SMILES): COc1cc([C@@H]2c3cc4c(c(O)c3C[C@H]3COC(=O)[C@@H]32)OCO4)cc(OC)c1O
- TGI (OVCAR-5 ovarian): > 200 µM
- GI50 (U251 CNS): 0.00228 µM and < 0.02 µM
- TGI (U251 CNS): 0.00608 µM and < 0.02 µM
- GI50 (DLD-1 colon): 0.00421 µM and 0.02 µM
- TGI (DLD-1 colon): > 200 µM
- GI50 (UACC-257 melanoma): 0.005 µM
- TGI (UACC-257 melanoma): > 20 µM
- GI50 (SF-295 CNS): 0.00304 µM
- TGI (SF-295 CNS): < 0.02 µM
- GI50 (SNB-78 CNS): 0.00309 µM
- TGI (SNB-78 CNS): > 200 µM
- GI50 (UACC-62 melanoma): 0.00454 µM
- TGI (UACC-62 melanoma): > 200 µM

Structure (SMILES): Cn1c(=O)c2nc(N3CCCCC3)cnc2n(C)c1=O
- TGI (OVCAR-5 ovarian): > 100 µM
- TGI (NCI-H522 lung): > 100 µM
- TGI (SK-OV-3 ovarian): > 100 µM
- TGI (U251 CNS): > 100 µM
- TGI (DLD-1 colon): > 100 µM
- TGI (UACC-257 melanoma): > 100 µM
- TGI (NCI-H460 lung): > 100 µM
- TGI (SF-295 CNS): > 100 µM
- TGI (UACC-62 melanoma): > 100 µM

Structure (SMILES): O=C(O)CNS(=O)(=O)c1ccc(NC(=O)Nc2ccccc2)cc1
- TGI (OVCAR-5 ovarian): > 100 µM
- TGI (NCI-H522 lung): > 100 µM
- TGI (SK-OV-3 ovarian): > 100 µM
- TGI (U251 CNS): > 100 µM
- TGI (DLD-1 colon): > 100 µM
- TGI (UACC-257 melanoma): > 100 µM
- TGI (NCI-H460 lung): > 100 µM
- TGI (SF-295 CNS): > 100 µM
- TGI (SNB-78 CNS): > 100 µM
- TGI (UACC-62 melanoma): > 52.9 µM
